In patent US20100216777A1, “AMINOPYRAZINE ANALOGS FOR TREATING GLAUCOMA AND OTHER RHO KINASE-MEDIATED DISEASES AND CONDITIONS” (ALCON, INC., priority 2004, published 2010):
Counter-ions that a name gives are not always drawn.

target: T1, Human Recombinant ROCK-II Enzyme (ROKα/ROCK-II, aa 11-552) (Homo sapiens, UniProt O75116); test: ROCK-II inhibition, fluorescence polarization assay (IMAP ROCK II kit); format: biochemical; conditions: substrate 200 nM, ATP 10 μM, 60 min at 23° C., read-out: Enzyme Inhibition Constants (IC50) against Human Recombinant ROCK-II Enzyme
T1 construct: (ROKα/ROCK-II, (aa 11-552), human active); purchased Upstate Biotechnology Co., Lake Placid, N.Y. 14-451
T1 sequence (O75116 11-552): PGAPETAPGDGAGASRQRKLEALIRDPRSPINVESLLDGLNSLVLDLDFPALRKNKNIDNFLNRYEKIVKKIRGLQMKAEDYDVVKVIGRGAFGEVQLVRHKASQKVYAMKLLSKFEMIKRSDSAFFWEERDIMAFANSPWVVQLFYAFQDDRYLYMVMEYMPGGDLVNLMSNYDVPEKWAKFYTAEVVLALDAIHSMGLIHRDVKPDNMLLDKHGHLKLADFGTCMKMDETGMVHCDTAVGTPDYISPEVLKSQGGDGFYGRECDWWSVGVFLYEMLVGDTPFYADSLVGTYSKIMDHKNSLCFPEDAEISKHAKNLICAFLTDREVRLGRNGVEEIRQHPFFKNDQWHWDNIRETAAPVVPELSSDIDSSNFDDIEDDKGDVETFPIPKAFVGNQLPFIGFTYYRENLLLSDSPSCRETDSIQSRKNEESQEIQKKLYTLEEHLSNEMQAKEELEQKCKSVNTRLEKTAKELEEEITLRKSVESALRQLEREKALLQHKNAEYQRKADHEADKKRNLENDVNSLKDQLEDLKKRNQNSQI
Description: The ability of certain compounds of Formula (I) to inhibit rho kinase was evaluated by means of in vitro assays. Human recombinant Rho kinase (ROKα/ROCK-II, (aa 11-552), human active, catalog #14-451, Upstate Biotechnology Co., Lake Placid, N.Y.), MgCl2/ATP cocktail, and enzyme substrate (Upstate) are used.
The fluorescence polarization assays are performed using a Biomek 2000 Robotic Workstation (Beckman Instruments, Palo Alto, Calif.) in a 96-well plate format. The assays are performed utilizing the IMAP ROCK II kit (Molecular Devices, Sunnyvale, Calif.) as follows. Substrate and ATP concentrations used are 200 nM and 10 μM, respectively, while the enzyme concentration is 3.96×10^−3 units per well. The substrate, enzyme, and ATP dilutions are made with the reaction buffer provided by the vendor. Test compounds are diluted in 10:10 DMSO-ethanol (vol/vol). For the actual assays, the various components are added into black, clear bottom, 96-well plates (Costar, Corning, N.Y.) in a final volume of 20 μl per well. After the enzyme reaction (60 min at 23° C.), 60 μl of the binding solution (IMAP kit, provided by vendor) is added per well and incubated for an additional 30 minutes in the dark at 23° C. Fluorescence polarization of the reaction mixtures is then measured on the Analyst™ HT instrument (Molecular Devices, Sunnyvale, Calif.).
The data generated are then analyzed using a non-linear, iterative, sigmoidal-fit computer program purchased from IDBS (Emeryville, Calif.) and as previously described (Sharif et al., J. Pharmacol. Exp. Ther. 286:1094-1102, 1998; Sharif et al., J. Pharmacol. Expt. Ther. 293:321-328, 2000; Sharif et al., J. Ocular Pharmacol. Ther. 18:141-162, 2002a; Sharif et al., J. Pharmac. Pharmacol. 54:539-547, 2002b) to generate the inhibition constants for the test compounds.

Row | SMILES | IC50 [nM]
1 | CN1CCCN(c2nc(-c3ccncc3)cnc2NCCO)CC1 [Example 28, 2-(3-(4-Methyl-1,4-diazepan-1-yl)-5-(pyridin-4-yl)pyrazin-2-ylamino)ethanol hydrochloride] | 3
2 | Nc1ncc(-c2ccncc2)nc1N1CCC(CO)CC1 [Example 11, (1-(3-Amino-6-(pyridin-4-yl)pyrazin-2-yl)piperidin-4-yl)methanol] | 17
3 | CN(C)C1CCN(c2nc(-c3ccncc3)cnc2N)CC1 [Example 13, 3-(4-(Dimethylamino)piperidin-1-yl)-5-(pyridin-4-yl)pyrazin-2-amine] | 6.4
4 | Cc1cnccc1-c1cnc(N)c(N2CCCN(C)CC2)n1 [Example 2, 3-(4-Methyl-1,4-diazepan-1-yl)-5-(3-methylpyridin-4-yl)pyrazin-2-amine hydrochloride] | 58
5 | CN(C)CCCOc1nc(-c2ccncc2)cnc1N(C)C [Example 36, 3-(3-(Dimethylamino)propoxy)-N,N-dimethyl-5-(pyridin-4-yl)pyrazin-2-amine hydrochloride] | 11
6 | CN1CCCN(c2nc(-c3ccncc3)cnc2N2CCOCC2)CC1 [Example 52, 4-(3-(4-Methyl-1,4-diazepan-1-yl)-5-(pyridin-4-yl)pyrazin-2-yl)morpholine trihydrochloride] | 6.3
7 | CN(C)c1ncc(-c2ccncc2)nc1NC1CCCNC1 (stereo not shown) [Example 34, N,N-(Piperidin-3-yl)-6-(pyridin-4-yl)pyrazine-2,3-diamine] | 3.1
8 | CN1CCCN(c2nc(-c3cccc4[nH]ncc34)cnc2N)CC1 [Example 5, 5-(1H-indazol-4-yl)-3-(4-methyl-1,4-diazepan-1-yl)pyrazin-2-amine dihydrochloride] | 25

Compounds with a lower IC50, results first:

Row | IC50 [nM] | SMILES
9 | 0.53 | CN1CCCN(c2nc(-c3ccnc4[nH]ccc34)cnc2N)CC1 [Example 4, 3-(4-Methyl-1,4-diazepan-1-yl)-5-(1H-pyrrolo[2,3-b]pyridin-4-yl)pyrazin-2-amine]
10 | 0.33 | CN1CCCN(c2nc(-c3ccncc3)cnc2N2CCCC2)CC1 [Example 38, 1-Methyl-4-(6-(pyridin-4-yl)-3-(pyrrolidin-1-yl)pyrazin-2-yl)-1,4-diazepane hydrochloride]
11 | 0.33 | c1cc(-c2cnc(N3CCCC3)c(N3CCCNCC3)n2)ccn1 [Example 40, 1-(6-(Pyridin-4-yl)-3-(pyrrolidin-1-yl)pyrazin-2-yl)-1,4-diazepane hydrochloride]
12 | 0.3 | CN(C)c1ncc(-c2ccncc2)nc1N1CCN(CCO)CC1 [Example 30, 2-(4-(3-(Dimethylamino)-6-(pyridin-4-yl)pyrazin-2-yl)piperazin-1-yl)ethanol hydrochloride]
13 | 0.25 | c1cc(-c2cnc(N3CCCC3)c(NC3CCCNC3)n2)ccn1 (stereo not shown) [Example 45, N-(Piperidin-3-yl)-6-(pyridin-4-yl)-3-(pyrrolidin-1-yl)pyrazin-2-amine dihydrochloride]
14 | 0.19 | c1cc(-c2cnc(N3CCCCCC3)c(NC3CCCNC3)n2)ccn1 (stereo not shown) [Example 51, 3-(Azepan-1-yl)-N-(piperidin-3-yl)-6-(pyridin-4-yl)pyrazin-2-amine dihydrochloride]
15 | 0.078 | OCCN1CCN(c2nc(-c3ccncc3)cnc2N2CCCC2)CC1 [Example 44]
16 | 0.053 | CN(C)c1ncc(-c2ccnc3[nH]ccc23)nc1N1CCN(CCO)CC1 [Example 31, 2-(4-(3-(Dimethylamino)-6-(1H-pyrrolo[2,3-b]pyridin-4-yl)pyrazin-2-yl)piperazin-1-yl)ethanol]
